10 molecules from US5366981A, “N-acyl-substituted azacyclic compounds, processes for their preparaion, and their use as pharmaceuticals” (Dr Lo Zambeletti S.p.A., priority 1989, dated 1994) can be followed below.

Test [1] relates to mice. Nature of the test: P-phenylquinone-induced abdominal writhing test in mice. In kind it is in vivo, Male Charles River mice (Swiss Strain). As to conditions: Mus musculus, sc, 20 min; s.c.; 20 min pretreatment; p-phenylquinone 2 mg/Kg i.p.; graded protection; read-out: ANALGESIA MOUSE WRITHING ED50. As for the experimental part:
A) P-phenylquinone-induced abdominal writhing test in mice
The methodology employed is based on that described by Sigmund et al, Proc. Soc. Exptl. Biol. 95, 729/1957, modified by Milne and Twomey, Agents and Actions, 10, 31/1980.
Male Charles River mice (Swiss Strain), 25-36 g body weight, were used. Animals were allowed food and water ad libitum and were randomized into groups of 10 prior to experimentation. Test compounds were dissolved in either distilled water or distilled water plus 0.1M AMS, and administered by the subcutaneous route in a final volume of 10 ml/Kg. Control animals received 10 ml/Kg of the appropriate vehicle alone. Following a pretreatment period of 20 min., mice were injected intraperitoneally with p-phenylquinone, 2 mg/Kg at 37° C. in a final volume of […]. […] During this period the number of abdominal writhing responses per animal were recorded where writhing consists of an intermittent contraction of the abdomen associated with hind leg extension.
The degree of antinociceptive protection afforded by the test compound was determined as the mean number of writhing responses observed in the treated group (T) expressed as a percentage of the mean number of writhing responses in the control group (C) according to the following formula:
[1-(T/C]×100%=% graded protection
Background: An intraperitoneal irritant provokes the stretching counted in writhing tests.

Test [2] concerns mice. Description: Tail-flick test in mice. The test is classed as in vivo, Male Charles River mice (Swiss Strain). As to conditions: Mus musculus, sc, 0.5 h; s.c.; 30 min pretreatment; quantal protection (reaction time doubled); read-out: ANALGESIA MOUSE TAIL-FLICK ED50. On the procedure:
B) Tail-flick test in mice
The methodology employed is based on that described by D'Amour and Smith, J. Pharmacol. Exp. Ther. 72, 74/1941.
Male Charles River mice (Swiss Strain), 22-34 g body weight were used. Animals were allowed food and water ad libitum and were randomized into groups of 10 prior to experimentation.
Test compounds were dissolved in either distilled water or distilled water plus 0.1M AMS and administered by the subcutaneous route in a final volume of 10 ml/Kg. Control animals received 10 ml/kg of the appropriate vehicle alone. Following a pretreatment period of 30 min., the mice were again placed under the heat source and the reaction tine re-determined.
Percentage quantal protection was determined as the number of mice in which the reaction time was doubled compared to pretreatment values, expressed as a percentage of the total number of mice in the group.

Structures can show the parent of a compound that is named as a salt.

Consider `CC1(C)CCCN(C(=O)Cc2ccc(Cl)c(Cl)c2)C1CN1CC=CC1` (centres unmarked) [Example 2, 1-(3,4-dichlorophenyl)acetyl-2-(3-pyrrolin-1-yl)methyl-3,3-dimethyl piperidine hydrochloride], for which the ED50 in the test with mice [1] was 0.006 mg/kg; with mice [2] it was 0.021 mg/kg.
For `CC1(C)CCCN(C(=O)Cc2ccc3c(c2)CCCC3=O)C1CN1CC=CC1` (centres unmarked) [Example 10, 1-[1-oxo-3,4-dihydro-(2H)-napht-6-yl]acetyl-2-(3-pyrrolin-1-yl)methyl-3,3-dimethyl piperidine hydrochloride], the ED50 in the test on mice [1] was 0.053 mg/kg; in the test on mice [2] it was 0.594 mg/kg.
The like results for `O=C(Cc1ccc(Cl)c(Cl)c1)N1CCc2sccc2C1CN1CC=CC1` (centres unmarked) [Example 7, 4-(3-pyrrolin-1-yl)methyl-5-(3,4-dichlorophenyl)acetyl-4,5,6,7-tetrahydrothieno[3,2-c]pyridine hydrochloride hemihydrate] were, in that order, 0.002 mg/kg and 0.008 mg/kg.
For `CC1(C)CCCN(C(=O)Cc2ccc3c(c2)CCCC3)C1CN1CC=CC1` (centres unmarked) [Example 4, 1-(5,6,7,8-tetrahydronapht-2-yl)acetyl-2-(3-pyrrolin-1-yl) methyl-3,3-dimethyl piperidine hydrochloride] the same measures were 0.025 mg/kg and 0.193 mg/kg.
On to `CC1(C)CCCN(C(=O)Cc2ccc(C(F)(F)F)cc2)C1CN1CC=CC1` (centres unmarked) [Example 3, 1-(4-trifluoromethylphenyl)acetyl-2-(3-pyrrolin-1-yl)methyl-3,3-dimethyl piperidine hydrochloride], for which the ED50 came to 0.006 mg/kg in the test with mice [1] and 0.015 mg/kg in the test on mice [2].
For `O=C(Cc1ccc(Cl)c(Cl)c1)N1CCc2ccccc2C1CN1CC=CC1` (centres unmarked) [Example 5, 1-(3-pyrrolin-1-yl)methyl-2-(3,4-dichlorophenyl)acetyl-1,2,3,4-tetrahydroisoquinoline hydrochloride] the same measures were 0.005 mg/kg and 0.015 mg/kg.
The like results for `CC1(C)CN(C(=O)Cc2ccc(Cl)c(Cl)c2)C(CN2CC=CC2)c2ccsc21.Cl` (centres unmarked) [Example 8, 4-(3-pyrrolin-1-yl)methyl-5-(3,4-dichlorophenyl)acetyl-7,7-dimethyl-4,5,6,7-tetrahydrothieno[3,2-c]pyridine hydrochloride] were, in that order, 0.04 mg/kg and 0.55 mg/kg.
The like results for `O=C(Cc1ccc(Cl)c(Cl)c1)N1CCCC[C@H]1CN1CC=CC1` [Example 1, (2S)-1-(3,4-dichlorophenyl)acetyl-2-(3-pyrrolin-1-yl)methyl piperidine hydrochloride] were, in that order, 0.005 mg/kg and 0.045 mg/kg.
For the molecule `O=C1CCCc2cc(CC(=O)N3CCCC[C@H]3CN3CC=CC3)ccc21` [Example 9, (2S)-1-[1-oxo-3,4-dihydro-(2H)-napht-6-yl]acetyl-2-(3-pyrrolin-1-yl)methyl piperidine hydrochloride], the ED50 with mice [1] was 0.023 mg/kg; in the test with mice [2], 0.316 mg/kg.
The like results for `CC1(C)CN(C(=O)Cc2ccc(Cl)c(Cl)c2)C(CN2CC=CC2)c2ccccc21` (centres unmarked) [Example 6, 1-(3-pyrrolin-1-yl)methyl-2-(3,4-dichlorophenyl)acetyl-4,4-dimethyl-1,2,3,4-tetrahydroisoquinoline hydrochloride] were, in that order, 0.047 mg/kg and 0.275 mg/kg.

The ED50 is the midpoint of the dose-response relation.
